Assay results published in the supplement of paper PMC13380429.

Columns and labels:
Conditions in all cases: 72 h
[1] = tested on: Calu-3; experiment: relative viability EC50 (midpoint between 100% and the lowest measured viability); higher = less toxic
[2] = tested on: Vero E6; experiment: as above
[3] = tested on: Caco-2; experiment: drug sensitivity score (DSS) for viability; higher = more toxic; extreme values may be limits of the assay
[4] = tested on: Calu-3; experiment: as above
[5] = tested on: Vero E6; experiment: as above
[6] = tested on: HepG2; experiment: as above
[7] = tested on: U2OS; experiment: as above
[8] = tested on: Caco-2; experiment: cell viability relative to DMSO; higher = less toxic
[9] = tested on: Calu-3; experiment: as above
[10] = tested on: Vero E6; experiment: as above
[11] = tested on: HepG2; experiment: as above
[12] = tested on: U2OS; experiment: as above
[13] = tested on: Caco-2; experiment: relative viability EC50 (midpoint between 100% and the lowest measured viability); higher = less toxic
[14] = tested on: HepG2; experiment: as above

Compound	relative viability EC50 [1]	relative viability EC50 [2]	drug sensitivity score [3]	drug sensitivity score [4]	drug sensitivity score [5]	drug sensitivity score [6]	drug sensitivity score [7]	cell viability ([8]; 1 nM)	cell viability ([8]; 10 nM)	cell viability ([8]; 100 nM)	cell viability ([8]; 1000 nM)	cell viability ([8]; 10000 nM)	cell viability ([9]; 1 nM)	cell viability ([9]; 10 nM)	cell viability ([9]; 100 nM)	cell viability ([9]; 1000 nM)	cell viability ([9]; 10000 nM)	cell viability ([10]; 1 nM)	cell viability ([10]; 10 nM)	cell viability ([10]; 100 nM)	cell viability ([10]; 1000 nM)	cell viability ([10]; 10000 nM)	cell viability ([11]; 1 nM)	cell viability ([11]; 10 nM)	cell viability ([11]; 100 nM)	cell viability ([11]; 1000 nM)	cell viability ([11]; 10000 nM)	cell viability ([12]; 1 nM)	cell viability ([12]; 10 nM)	cell viability ([12]; 100 nM)	cell viability ([12]; 1000 nM)	cell viability ([12]; 10000 nM)	relative viability EC50 [13]	relative viability EC50 [14]
C=CC(=O)Nc1ccc2ncnc(Nc3cccc(Br)c3)c2c1	0.0229 µM	0.287 µM	6.7	21	13.6	2.7	3	83.2%	86.7%	92%	71%	70.6%	96%	79.1%	46.5%	32.9%	35.4%	96.8%	89.6%	71%	50.7%	19.7%	100%	98.7%	95.2%	93.6%	65%	96.8%	107%	93%	87.9%	62.8%		
NCCNC(=O)c1ccc(Cl)cn1 [lazabemide]		> 10 µM	0		0	0		98.1%	95.6%	101%	103%	101%						95.6%	99.2%	90.8%	91%	104%	99.6%	96.4%	113%	114%	125%						> 10 µM	> 10 µM
O=C(Nc1ccc(S(=O)(=O)Nc2nccs2)cc1)C(c1ccccc1)c1ccccc1			0			0		105%	101%	113%	99%	103%											104%	105%	103%	110%	95.3%						> 10 µM	> 10 µM
C#C[C@]1(OC(=O)CCCCCC)CC[C@H]2[C@@H]3CCC4=CC(=O)CC[C@@H]4[C@H]3CC[C@@]21C [norethisterone-enanthate]		> 10 µM	2.8	3.2	0.6	6.4	1.6	99.9%	102%	99.8%	95.8%	58.5%	100%	104%	90%	94.1%	57.1%	96.6%	97.1%	98.8%	94.5%	84.2%	95.9%	95.7%	96.9%	88.8%	19.2%	98.5%	100%	100%	98.8%	68.1%		2.06 µM
C=CCN1CCc2nc(N)sc2CC1 [talipexole]		> 10 µM	0		0			102%	104%	99.2%	106%	102%						103%	107%	98.1%	100%	100%											> 10 µM	
Cc1cccc(C)c1NC1=NCCCS1 [xylazine]	> 10 µM	> 10 µM	0	0	0			105%	101%	98.7%	104%	92.1%	94.4%	102%	92.1%	114%	90.2%	113%	105%	106%	102%	98.5%											> 10 µM	
Cn1c(=O)c2c(ncn2CC2OCCO2)n(C)c1=O [doxofylline]				0	0	1.3	0																											
CCCCC/N=c1\ccn(Cc2ccccc2)c2ccccc12		> 10 µM	2	1.4	0	4.5	2.1	93.3%	94.9%	103%	98.5%	63%	97%	98.2%	96.1%	104%	65.5%	94.9%	100%	90.6%	99.2%	94.2%	96.3%	99.3%	96%	94.3%	33.9%	101%	94.4%	100%	97.5%	64.3%		2.46 µM
O=c1[nH]cnc2c1cnn2[C@@H]1O[C@H](CO)[C@@H](O)[C@H]1O [allopurinol-riboside]	> 10 µM	> 10 µM	0	0	0			97.7%	98%	111%	91.8%	101%	102%	90.7%	103%	93.4%	98.1%	102%	100%	98.2%	103%	102%											> 10 µM	
CCN(CC)CCOC(=O)C(c1ccccc1)c1ccccc1 [adiphenine]	> 10 µM	> 10 µM	0	0	0	0		105%	102%	95.1%	98.3%	103%	109%	113%	97%	104%	124%	111%	116%	105%	107%	99.2%	103%	109%	106%	113%	99.1%						> 10 µM	> 10 µM
